Data: ChEMBL document CHEMBL5104209 (RSC Med Chem, 2022)
Activity calls are given as the source filed them. The rule behind the calls is not given here.

Columns and labels:
[1] = Binding affinity to human His-tagged PAK4 (300 to 591 residues) L301A mutant expressed in Escherichia coli BL21 (DE3)pLysS by surface plasmon resonance assay
Homo sapiens = species on record: Homo sapiens; assay: Binding affinity to human His-tagged PAK4 (300 to 591 residues) L301A mutant expressed in Escherichia coli BL21 (DE3)pLysS in presence of staurosporine by ligand observed NMR competitive assay

| Activity (Homo sapiens) | Structure (SMILES) | Kd [1] [µM] |
| --- | --- | --- |
| – | Nc1cccc2ncccc12 | 510 |
| – | NS(=O)(=O)c1cccc2cnccc12 | 300 |
| Active | CNC(=O)c1cnn2ccc(C#N)cc12 | – |
| – | c1c(Nc2nc(N3CCCCC3)nc3[nH]ncc23)n[nH]c1C1CC1 | 0.05 |
